In assay [1] the target is Cannabinoid receptor 1 (Rattus norvegicus) (UniProt P20272). Description: Agonist activity at CB1 receptor in rat cerebellar membranes up to 10 uM incubated for 10 mins prior to testing by [35S]GTPgammaS binding assay. Format: functional, cell membranes. The note with it: Cerebellum, Membrane.
In assay [2] the target is Cannabinoid receptor 2 (Homo sapiens) (UniProt P34972). Description: Agonist activity at human CB2 receptor expressed in CHO cell membranes up to 10 uM incubated for 10 mins prior to testing by [35S]GTPgammaS binding assay. Format: functional. On the technique in general: GTPγS resists hydrolysis and so accumulates on activated G proteins.
Assay [3] has as its target T1, Lysophosphatidylserine lipase ABHD12 (Homo sapiens) (UniProt Q8N2K0).
T1 sequence (whole entry): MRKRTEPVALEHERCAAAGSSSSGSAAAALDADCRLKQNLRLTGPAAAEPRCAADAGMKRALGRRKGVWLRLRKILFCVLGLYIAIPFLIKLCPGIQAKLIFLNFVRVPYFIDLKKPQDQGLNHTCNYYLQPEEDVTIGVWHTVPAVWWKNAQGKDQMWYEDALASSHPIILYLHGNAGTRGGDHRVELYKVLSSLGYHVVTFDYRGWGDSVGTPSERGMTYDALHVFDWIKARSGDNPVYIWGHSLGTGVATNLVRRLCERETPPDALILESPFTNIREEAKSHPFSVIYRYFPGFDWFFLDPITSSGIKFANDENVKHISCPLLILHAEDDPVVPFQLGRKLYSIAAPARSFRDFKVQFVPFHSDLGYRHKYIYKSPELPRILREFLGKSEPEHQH
Description: Inhibition of human ABHD12 overexpressed in HEK293 cells assessed as 2-AG hydrolysis at 1 uM by fluorescent glycerol assay. Format: cell-based.

In assay [4] the target is T2, Lysophosphatidylserine lipase ABHD12 (Mus musculus) (UniProt Q99LR1).
T2 sequence (whole entry): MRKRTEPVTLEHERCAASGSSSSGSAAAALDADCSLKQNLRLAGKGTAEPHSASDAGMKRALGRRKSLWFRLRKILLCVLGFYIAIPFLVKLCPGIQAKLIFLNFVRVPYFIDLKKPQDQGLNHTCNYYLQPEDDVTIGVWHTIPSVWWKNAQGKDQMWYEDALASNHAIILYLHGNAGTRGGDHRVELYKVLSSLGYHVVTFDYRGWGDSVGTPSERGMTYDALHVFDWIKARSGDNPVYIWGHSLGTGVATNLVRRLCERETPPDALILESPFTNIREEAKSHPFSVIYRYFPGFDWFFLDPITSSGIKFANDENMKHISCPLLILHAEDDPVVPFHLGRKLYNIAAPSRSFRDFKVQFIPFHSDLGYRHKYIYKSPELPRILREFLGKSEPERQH
Description: Inhibition of TAMRA-FP-labeled ABHD12 in mouse brain membrane at 10 uM after 1 hr by fluorescent gel scanning assay. Format: cell membranes.

In assay [5] the target is T3, Monoglyceride lipase (Mus musculus) (UniProt O35678).
T3 sequence (whole entry): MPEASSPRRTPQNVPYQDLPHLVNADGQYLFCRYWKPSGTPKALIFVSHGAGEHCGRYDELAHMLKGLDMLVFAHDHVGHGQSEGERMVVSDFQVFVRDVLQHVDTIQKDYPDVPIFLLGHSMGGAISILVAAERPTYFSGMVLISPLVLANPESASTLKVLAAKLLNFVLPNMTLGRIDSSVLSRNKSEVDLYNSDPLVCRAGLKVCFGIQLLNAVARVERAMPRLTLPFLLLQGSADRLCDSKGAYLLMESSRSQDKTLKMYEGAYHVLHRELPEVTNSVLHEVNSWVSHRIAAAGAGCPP
Nature of the assay: Inhibition of TAMRA-FP-labeled MAGL in mouse brain membrane at 10 uM after 1 hr by fluorescent gel scanning assay. Format: cell membranes.

For assay [6], the target named is T4, Fatty-acid amide hydrolase 1 (Mus musculus) (UniProt O08914).
T4 sequence (whole entry): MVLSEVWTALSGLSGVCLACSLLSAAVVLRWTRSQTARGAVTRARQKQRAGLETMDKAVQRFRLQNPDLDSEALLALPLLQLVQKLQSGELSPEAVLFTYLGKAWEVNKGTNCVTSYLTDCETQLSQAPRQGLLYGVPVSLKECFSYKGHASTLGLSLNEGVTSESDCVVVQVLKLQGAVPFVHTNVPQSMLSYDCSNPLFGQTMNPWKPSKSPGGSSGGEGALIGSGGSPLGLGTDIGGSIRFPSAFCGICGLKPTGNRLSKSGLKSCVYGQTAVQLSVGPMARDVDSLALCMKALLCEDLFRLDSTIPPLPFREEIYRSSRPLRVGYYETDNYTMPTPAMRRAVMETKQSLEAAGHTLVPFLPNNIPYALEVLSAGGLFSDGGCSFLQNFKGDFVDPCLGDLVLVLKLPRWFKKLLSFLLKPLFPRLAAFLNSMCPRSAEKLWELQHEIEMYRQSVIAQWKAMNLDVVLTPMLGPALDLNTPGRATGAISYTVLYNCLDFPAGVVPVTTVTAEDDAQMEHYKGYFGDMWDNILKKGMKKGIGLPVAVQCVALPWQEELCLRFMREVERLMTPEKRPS
Description: Inhibition of TAMRA-FP-labeled FAAH in mouse brain membrane after 1 hr by fluorescent gel scanning assay. Format: cell membranes.

Assay [7] concerns the target T5, Fatty-acid amide hydrolase 1 (Homo sapiens) (UniProt O00519).
T5 sequence (whole entry): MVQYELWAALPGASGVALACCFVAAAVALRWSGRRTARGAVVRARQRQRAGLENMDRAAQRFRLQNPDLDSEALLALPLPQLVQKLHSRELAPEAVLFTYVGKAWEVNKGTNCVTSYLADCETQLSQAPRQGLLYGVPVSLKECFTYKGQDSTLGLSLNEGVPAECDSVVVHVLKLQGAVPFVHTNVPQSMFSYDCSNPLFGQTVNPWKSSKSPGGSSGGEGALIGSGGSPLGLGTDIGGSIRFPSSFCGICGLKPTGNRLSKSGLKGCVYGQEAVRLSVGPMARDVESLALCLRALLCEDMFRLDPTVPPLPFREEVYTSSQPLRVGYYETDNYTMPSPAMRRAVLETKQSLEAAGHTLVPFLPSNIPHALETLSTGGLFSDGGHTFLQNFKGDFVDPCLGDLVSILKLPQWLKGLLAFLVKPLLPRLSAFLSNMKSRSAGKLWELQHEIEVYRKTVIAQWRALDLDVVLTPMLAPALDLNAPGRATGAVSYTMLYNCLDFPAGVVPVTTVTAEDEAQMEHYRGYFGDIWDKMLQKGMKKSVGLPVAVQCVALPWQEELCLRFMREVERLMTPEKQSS
Nature of the assay: Inhibition of human recombinant FAAH overexpressed in African green monkey COS7 cells using [3H]-anandamide as substrate at 10 to 100 uM preincubated for 10 to 60 mins by liquid scintillation counting analysis. Format: cell-based. The note with it: COS-7.

Data on one molecule can be found in ChEMBL document CHEMBL3085700 (J Med Chem, 2013).

Calls of active or inactive are those of the source. No cut-off for these calls is given here.

Chain of Cannabinoid receptor 2 (Homo sapiens) (P34972 whole entry): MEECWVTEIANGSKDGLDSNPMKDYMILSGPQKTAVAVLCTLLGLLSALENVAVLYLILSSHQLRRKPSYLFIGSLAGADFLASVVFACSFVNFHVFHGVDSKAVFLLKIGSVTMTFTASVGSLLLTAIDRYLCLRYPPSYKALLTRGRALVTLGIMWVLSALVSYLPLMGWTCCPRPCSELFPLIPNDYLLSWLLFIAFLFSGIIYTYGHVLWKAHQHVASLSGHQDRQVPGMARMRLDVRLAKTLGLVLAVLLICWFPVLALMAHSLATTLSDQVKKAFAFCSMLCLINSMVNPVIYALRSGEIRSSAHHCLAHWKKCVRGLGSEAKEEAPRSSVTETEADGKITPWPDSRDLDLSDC
Chain of Cannabinoid receptor 1 (Rattus norvegicus) (P20272 whole entry): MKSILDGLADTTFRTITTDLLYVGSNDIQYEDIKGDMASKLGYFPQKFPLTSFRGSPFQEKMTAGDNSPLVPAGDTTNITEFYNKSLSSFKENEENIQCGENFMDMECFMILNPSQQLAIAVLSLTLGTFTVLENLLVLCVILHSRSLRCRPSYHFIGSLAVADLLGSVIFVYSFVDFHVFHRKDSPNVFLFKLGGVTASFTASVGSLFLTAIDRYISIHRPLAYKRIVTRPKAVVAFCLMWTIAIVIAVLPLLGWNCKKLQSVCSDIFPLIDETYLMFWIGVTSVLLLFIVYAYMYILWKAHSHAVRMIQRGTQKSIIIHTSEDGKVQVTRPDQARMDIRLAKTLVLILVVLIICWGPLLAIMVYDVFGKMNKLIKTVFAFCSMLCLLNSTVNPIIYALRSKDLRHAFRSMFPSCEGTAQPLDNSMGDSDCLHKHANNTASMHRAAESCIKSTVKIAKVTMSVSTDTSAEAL

Consider `COc1nn([C@@H](C)c2ccc(CC(C)C)cc2)c(=O)o1`, for which the outcome in assay [1] and in assay [2] was inactive. For the same molecule, the inhibition entry in assay [3], in assay [4] and in assay [5] was “inactive” each time. In assay [6], the inhibition entry is “Dose-dependent effect”. The inhibition result in assay [7] was “Active”.
